Source: PubChem BioAssay AID2060486 (Molecular Pharmacology Branch, DTP, NCI, 2025)

Test system: IGROV1 complex spheroids (HUVEC, MSC), viability % test/control
Assay: Anticancer human tumor IGROV1 cell line growth inhibition [GQUAD];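 note: spheroids exposed to compounds for 7 days before readout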;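 for viability, T/C: 100% = DMSO vehicle control viability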
Settings: for IC50: curve of first compound; for viability, T/C: stronger effect = lower value
How it was run: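 Multi-cell-type spheroids of tumor cells with HUVEC and mesenchymal stem cells, treated with drug combinations. Concentrations descend in half-log steps from near clinical Cmax, or from 10 microM where Cmax is unknown; viability read-out.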

[1] = second compound 0.0316 µM, first compound 0.0316 µM
[2] = second compound 0.0316 µM, first compound 0.316 µM
[3] = second compound 0.1 µM, first compound 0.0316 µM
[4] = second compound 0.1 µM, first compound 0.316 µM
[5] = second compound 0.316 µM, first compound 0.0316 µM
[6] = second compound 0.316 µM, first compound 0.316 µM
[7] = second compound 1 µM, first compound 0.0316 µM
[8] = second compound 1 µM, first compound 0.316 µM
[9] = second compound 3.16 µM, first compound 0.0316 µM
[10] = second compound 3.16 µM, first compound 0.316 µM
[11] = second compound 10 µM, first compound 0.0316 µM
[12] = second compound 10 µM, first compound 0.316 µM

Cn1ncnc1[C@H]1c2n[nH]c(=O)c3cc(F)cc(c23)N[C@@H]1c1ccc(F)cc1 + Cc1[nH]c2ccc(F)cc2c1-c1nc2c3cccnc3c3ncccc3c2[nH]1
IC50 (second compound 0.0316 µM): 149 nM
IC50 (second compound 0.1 µM): 73.5 nM
IC50 (second compound 0.316 µM): 53 nM
IC50 (second compound 1 µM): < 0.999 nM
IC50 (second compound 3.16 µM): < 0.999 nM
IC50 (second compound 10 µM): < 0.999 nM
viability, T/C (second compound 0.0316 µM, first compound 0.000999 µM): 105%
viability, T/C (second compound 0.0316 µM, first compound 0.00316 µM): 79.6%
viability, T/C (second compound 0.0316 µM, first compound 0.00999 µM): 86.7%
viability, T/C [1]: 62.3%
viability, T/C (second compound 0.0316 µM, first compound 0.0999 µM): 67.7%
viability, T/C [2]: 33.4%
viability, T/C (second compound 0.1 µM, first compound 0.000999 µM): 100%
viability, T/C (second compound 0.1 µM, first compound 0.00316 µM): 80.1%
viability, T/C (second compound 0.1 µM, first compound 0.00999 µM): 83%
viability, T/C [3]: 48.9%
viability, T/C (second compound 0.1 µM, first compound 0.0999 µM): 53.1%
viability, T/C [4]: 32%
viability, T/C (second compound 0.316 µM, first compound 0.000999 µM): 96.4%
viability, T/C (second compound 0.316 µM, first compound 0.00316 µM): 81.9%
viability, T/C (second compound 0.316 µM, first compound 0.00999 µM): 68.9%
viability, T/C [5]: 54.8%
viability, T/C (second compound 0.316 µM, first compound 0.0999 µM): 46.5%
viability, T/C [6]: 27.5%
viability, T/C (second compound 1 µM, first compound 0.000999 µM): 5.11%
viability, T/C (second compound 1 µM, first compound 0.00316 µM): 4.97%
viability, T/C (second compound 1 µM, first compound 0.00999 µM): 5.21%
viability, T/C [7]: 4.33%
viability, T/C (second compound 1 µM, first compound 0.0999 µM): 4.79%
viability, T/C [8]: 4.17%
viability, T/C (second compound 3.16 µM, first compound 0.000999 µM): 4.43%
viability, T/C (second compound 3.16 µM, first compound 0.00316 µM): 4.31%
viability, T/C (second compound 3.16 µM, first compound 0.00999 µM): 4.37%
viability, T/C [9]: 4.14%
viability, T/C (second compound 3.16 µM, first compound 0.0999 µM): 4.64%
viability, T/C [10]: 3.96%
viability, T/C (second compound 10 µM, first compound 0.000999 µM): 4.02%
viability, T/C (second compound 10 µM, first compound 0.00316 µM): 3.63%
viability, T/C (second compound 10 µM, first compound 0.00999 µM): 5.14%
viability, T/C [11]: 4.68%
viability, T/C (second compound 10 µM, first compound 0.0999 µM): 4.53%
viability, T/C [12]: 4.33%

O=C(c1cc(Cc2n[nH]c(=O)c3ccccc23)ccc1F)N1CCN(C(=O)C2CC2)CC1 + Cc1[nH]c2ccc(F)cc2c1-c1nc2c3cccnc3c3ncccc3c2[nH]1
IC50 (second compound 0.0316 µM): 5340 nM
IC50 (second compound 0.1 µM): 3120 nM
IC50 (second compound 0.316 µM): 5530 nM
IC50 (second compound 1 µM): < 31.6 nM
IC50 (second compound 3.16 µM): < 31.6 nM
IC50 (second compound 10 µM): < 31.6 nM
viability, T/C [1]: 97.1%
viability, T/C (second compound 0.0316 µM, first compound 0.1 µM): 82.3%
viability, T/C [2]: 94.9%
viability, T/C (second compound 0.0316 µM, first compound 1 µM): 66.5%
viability, T/C (second compound 0.0316 µM, first compound 3.16 µM): 72.8%
viability, T/C (second compound 0.0316 µM, first compound 10 µM): 31%
viability, T/C [3]: 89.1%
viability, T/C (second compound 0.1 µM, first compound 0.1 µM): 83.2%
viability, T/C [4]: 69.4%
viability, T/C (second compound 0.1 µM, first compound 1 µM): 57.3%
viability, T/C (second compound 0.1 µM, first compound 3.16 µM): 62.3%
viability, T/C (second compound 0.1 µM, first compound 10 µM): 23.5%
viability, T/C [5]: 72.9%
viability, T/C (second compound 0.316 µM, first compound 0.1 µM): 82.4%
viability, T/C [6]: 74%
viability, T/C (second compound 0.316 µM, first compound 1 µM): 82.3%
viability, T/C (second compound 0.316 µM, first compound 3.16 µM): 69.8%
viability, T/C (second compound 0.316 µM, first compound 10 µM): 28%
viability, T/C [7]: 4.09%
viability, T/C (second compound 1 µM, first compound 0.1 µM): 3.9%
viability, T/C [8]: 4.15%
viability, T/C (second compound 1 µM, first compound 1 µM): 4.33%
viability, T/C (second compound 1 µM, first compound 3.16 µM): 6.04%
viability, T/C (second compound 1 µM, first compound 10 µM): 4.53%
viability, T/C [9]: 3.99%
viability, T/C (second compound 3.16 µM, first compound 0.1 µM): 3.97%
viability, T/C [10]: 3.46%
viability, T/C (second compound 3.16 µM, first compound 1 µM): 3.87%
viability, T/C (second compound 3.16 µM, first compound 3.16 µM): 4.83%
viability, T/C (second compound 3.16 µM, first compound 10 µM): 3.88%
viability, T/C [11]: 4.17%
viability, T/C (second compound 10 µM, first compound 0.1 µM): 3.02%
viability, T/C [12]: 3.67%
viability, T/C (second compound 10 µM, first compound 1 µM): 4.06%
viability, T/C (second compound 10 µM, first compound 3.16 µM): 5.08%
viability, T/C (second compound 10 µM, first compound 10 µM): 4.55%
